Experimental data reported in paper PMC7139691, “Effect of Arginine on Chaperone-Like Activity of HspB6 and Monomeric 14-3-3ζ” (International Journal of Molecular Sciences, 2020).

Target: T1, HspB6 (Homo sapiens, UniProt O14558)
T1 construct: recombinant wild type; small oligomers of 55-60 kDa (dimers and tetramers)
T1 sequence (O14558 1-160): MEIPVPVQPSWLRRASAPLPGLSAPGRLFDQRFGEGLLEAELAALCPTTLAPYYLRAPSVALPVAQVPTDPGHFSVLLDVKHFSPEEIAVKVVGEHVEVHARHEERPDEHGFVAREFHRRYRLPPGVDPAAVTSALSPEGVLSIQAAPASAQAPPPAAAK
Assay: intrinsic tryptophan fluorescence titration
Format: binding
Settings: read-out: Kdiss

## N=C(N)NCCC[C@H](N)C(=O)O [arginine]
  Kd: 10 ± 3 mM
